# Target: MCH receptor (Homo sapiens, UniProt Q99705)
# Experiment: High throughput functional screening FLIPR/FDSS6000 (intracellular Ca2+ evoked by MCH)
# Type: cell-based
# Conditions: FLIPR/FDSS, antagonist activity vs 50 nM MCH; class by percent of control at 10^−7 M or IC50; read-out: class
# Procedure, shortened: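 For antagonist testing, compound-treated cells (30 min, 37 °C) were stimulated with 50 nM MCH and intracellular Ca2+ followed by Fluo4 fluorescence on FLIPR/FDSS6000. Receptor was a constitutively active, non-endogenous MCH receptor; dye loading 4 μM Fluo4-AM, 1 h, 37 °C.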
row,IC50 [nM],Structure (SMILES)
1,> 200,"Cc1cnc(N[C@H]2CC[C@@H](C(=O)N[C@@H](C)c3ccccc3F)CC2)nc1N(C)C [Example 3295, cis-4-{[4-(dimethylamino)-5-methylpyrimidin-2-yl]amino}-N-[(1S)-1-(2-fluorophenyl)ethyl]cyclohexanecarboxamide]"
2,50 to 200,"Cc1cnc(N[C@H]2CC[C@@H](C(=O)N[C@H](C)c3ccc(Br)cc3)CC2)nc1N(C)C [Example 3297, cis-N-[(1R)-1-(4-bromophenyl)ethyl]-4-{[4-(dimethylamino)-5-methylpyrimidin-2-yl]amino}cyclohexanecarboxamide]"
3,< 50,"Cc1cnc(NC2CCC(C(=O)N[C@@H](C)c3cccc(C(F)(F)F)c3)CC2)nc1N(C)C (stereo partly drawn) [Example 3298, 4-{[4-(dimethylamino)-5-methylpyrimidin-2-yl]amino}-N-{(1S)-1-[3-(trifluoromethyl)phenyl]ethyl}cyclohexanecarboxamide]"
4,< 50,"Cc1cnc(NC2CCC(C(=O)N[C@H](C)c3cccc(C(F)(F)F)c3)CC2)nc1N(C)C (stereo partly drawn) [Example 3299, 4-{[4-(dimethylamino)-5-methylpyrimidin-2-yl]amino}-N-{(1R)-1-[3-(trifluoromethyl)phenyl]ethyl}cyclohexanecarboxamide]"
5,< 50,"Cc1cnc(NC2CCC(C(=O)N[C@@H](C)c3ccccc3C(F)(F)F)CC2)nc1N(C)C (stereo partly drawn) [Example 3300, 4-{[4-(dimethylamino)-5-methylpyrimidin-2-yl]amino}-N-{(1S)-1-[2-(trifluoromethyl)phenyl]ethyl}cyclohexanecarboxamide]"
6,> 200,"Cc1cnc(NC2CCC(C(=O)N[C@H](C)c3ccccc3C(F)(F)F)CC2)nc1N(C)C (stereo partly drawn) [Example 3301, 4-{[4-(dimethylamino)-5-methylpyrimidin-2-yl]amino}-N-{(1R)-1-[2-(trifluoromethyl)phenyl]ethyl}cyclohexanecarboxamide]"
7,< 50,"Cc1cnc(N[C@H]2CC[C@@H](C(=O)N[C@@H](C)c3ccc(OC(F)(F)F)cc3)CC2)nc1N(C)C [Example 3302, cis-4-{[4-(dimethylamino)-5-methylpyrimidin-2-yl]amino}-N-{(1S)-1-[4-(trifluoromethoxy)phenyl]ethyl}-cyclohexanecarboxamide]"
8,50 to 200,"Cc1cnc(N[C@H]2CC[C@@H](C(=O)N[C@H](C)c3ccc(OC(F)(F)F)cc3)CC2)nc1N(C)C [Example 3303, cis-4-{[4-(dimethylamino)-5-methylpyrimidin-2-yl]amino}-N-{(1R)-1-[4-(trifluoromethoxy)phenyl]ethyl}-cyclohexanecarboxamide]"
9,> 200,"Cc1cc(N[C@H]2CC[C@@H](C(=O)N[C@@H](C)c3ccc(Br)cc3)CC2)nc2ccccc12 [Example 3304, cis-N-[(1S)-1-(4-bromophenyl)ethyl]-4-[(4-methylquinolin-2-yl)amino]cyclohexanecarboxamide]"
10,50 to 200,"Cc1cc(N[C@H]2CC[C@@H](C(=O)N[C@H](C)c3ccc(Cl)cc3)CC2)nc2ccccc12 [Example 3305, cis-N-[(1R)-1-(4-chlorophenyl)ethyl]-4-[(4-methylquinolin-2-yl)amino]cyclohexanecarboxamide]"
11,50 to 200,"Cc1cc(N[C@H]2CC[C@@H](C(=O)N[C@@H](C)c3ccc(Cl)cc3)CC2)nc2ccccc12 [Example 3306, cis-N-[(1S)-1-(4-chlorophenyl)ethyl]-4-[(4-methylquinolin-2-yl)amino]cyclohexanecarboxamide]"
12,< 50,"Cc1cc(N[C@H]2CC[C@@H](C(=O)N[C@H](C)c3cccc(C(F)(F)F)c3)CC2)nc2ccccc12 [Example 3307, cis-4-[(4-methylquinolin-2-yl)amino]-N-{(1R)-1-[3-(trifluoromethyl)phenyl]ethyl}cyclohexanecarboxamide]"
13,< 50,"Cc1cnc(N[C@H]2CC[C@@H](C(=O)N[C@@H](C)c3ccc(Br)cc3)CC2)nc1N(C)C [Example 3308, cis-N-[(1S)-1-(4-bromophenyl)ethyl]-4-{[4-(dimethylamino)-5-methylpyrimidin-2-yl]amino}cyclohexanecarboxamide]"
14,50 to 200,"Cc1cc(N[C@H]2CC[C@@H](C(=O)N[C@@H](C)c3cc(C(F)(F)F)cc(C(F)(F)F)c3)CC2)nc2ccccc12 [Example 3309, cis-N-{(1S)-1-[3,5-bis(trifluoromethyl)phenyl]ethyl}-4-[(4-methylquinolin-2-yl)amino]cyclohexanecarboxamide]"
15,> 200,"Cc1cc(N[C@H]2CC[C@@H](C(=O)N[C@H](C)c3ccc(OC(F)(F)F)cc3)CC2)nc2ccccc12 [Example 3310, cis-4-[(4-methylquinolin-2-yl)amino]-N-{(1R)-1-[4-(trifluoromethoxy)phenyl]ethyl}cyclohexanecarboxamide]"
16,> 200,"Cc1cc(N[C@H]2CC[C@@H](C(=O)N[C@H](C)c3ccccc3F)CC2)nc2ccccc12 [Example 3311, cis-N-[(1R)-1-(2-fluorophenyl)ethyl]-4-[(4-methylquinolin-2-yl)amino]cyclohexanecarboxamide]"
17,< 50,"Cc1cc(N[C@H]2CC[C@@H](C(=O)N[C@@H](C)c3ccccc3F)CC2)nc2ccccc12 [Example 3312, cis-N-[(1S)-1-(2-fluorophenyl)ethyl]-4-[(4-methylquinolin-2-yl)amino]cyclohexanecarboxamide]"
18,50 to 200,"Cc1cc(N[C@H]2CC[C@@H](C(=O)N[C@H](C)c3ccccc3C(F)(F)F)CC2)nc2ccccc12 [Example 3313, cis-4-[(4-methylquinolin-2-yl)amino]-N-{(1R)-1-[2-(trifluoromethyl)phenyl]ethyl}cyclohexanecarboxamide]"
19,< 50,"Cc1cc(N[C@H]2CC[C@@H](C(=O)N[C@@H](C)c3ccccc3C(F)(F)F)CC2)nc2ccccc12 [Example 3314, cis-4-[(4-methylquinolin-2-yl)amino]-N-{(1S)-1-[2-(trifluoromethyl)phenyl]ethyl}cyclohexanecarboxamide]"
20,< 50,"Cc1cc(N[C@H]2CC[C@@H](C(=O)N[C@@H](C)c3cccc(C(F)(F)F)c3)CC2)nc2ccccc12 [Example 3315, cis-4-[(4-methylquinolin-2-yl)amino]-N-{(1S)-1-[3-(trifluoromethyl)phenyl]ethyl}cyclohexanecarboxamide]"
21,50 to 200,"COc1ccccc1NC(=O)N[C@H]1CC[C@@H](Nc2ncc(C)c(N(C)C)n2)CC1 [Example 3321, N-(cis-4-{[4-(dimethylamino)-5-methylpyrimidin-2-yl]amino}cyclohexyl)-N′-(2-methoxyphenyl)urea]"
22,> 200,"COc1cccc(NC(=O)N[C@H]2CC[C@@H](Nc3ncc(C)c(N(C)C)n3)CC2)c1 [Example 3322, N-(cis-4-{[4-(dimethylamino)-5-methylpyrimidin-2-yl]amino}cyclohexyl)-N′-(3-methoxyphenyl)urea]"
23,< 50,"COc1ccc(NC(=O)N[C@H]2CC[C@@H](Nc3ncc(C)c(N(C)C)n3)CC2)cc1OC [Example 3323, N-(3,4-dimethoxyphenyl)-N′-(cis-4-{[4-(dimethylamino)-5-methylpyrimidin-2-yl]amino}cyclohexyl)urea]"
24,50 to 200,"Cc1cnc(N[C@H]2CC[C@@H](NC(=O)Nc3ccccc3F)CC2)nc1N(C)C [Example 3324, N-(cis-4-{[4-(dimethylamino)-5-methylpyrimidin-2-yl]amino}cyclohexyl)-N′-(2-fluorophenyl)urea]"

# From patent publication US20050197350A1, “Novel quinoline, tetrahydroquinazoline, and pyrimidine derivatives and methods of treatment related to the use thereof” (TAISHO PHARMACEUTICAL CO., LTD., priority 2003, published 2005)
